Experimental data as given in patent US4596873A, “1,4,5,6,7,8-Hexahydro-2-alkyl-4-aryl-5-oxo-1,7-naphthyridine-3-carboxyl ic acid aromatic esters and pharmaceutically acceptable acid addition salts thereof useful as antihypertensive agents” (American Home Products Corporation, priority 1985, dated 1986).

Tests used:
[1] = tested on: spontaneously hypertensive rats; assay: decrease in systolic blood pressure of spontaneously hypertensive rats; assay type: in vivo, rat
[2] = tested on: arterial actin-myosin interactions; assay: inhibition of superprecipitation (antagonism of arterial actin-myosin interaction); assay type: biochemical; settings: six minute time-point, mean±SEM
Protocol: (§1) The data reported herein was obtained at a six minute time-point rather than the 1.5, 5 and 12 minute time points indicated in the superprecipitation assay of the Silver et al. paper.
(§2) The following examples illustrate the preparation of a representative number of compounds of this invention. After each example, and Ca^+2 antagonist activity of the compound is presented in terms of percent relaxation of aortic tissue (P.R.) at 10^-5 M concentration. […] Inhibition of superprecipitation (Antag. of Actin-Myosin interaction) is expressed as percent inhibition (mean±standard error of the mean for at least 3 separate experiments) at a compound concentration. In the same manner, inhibition of myosin light chain phosphorylation (Antag. of MLCP) is expressed as a percent inhibition at a compound concentration. Similarly, the antihypertensive activity is reported in terms of millimeters mercury (mmHg) systolic blood pressure (B.P.) reduction at the stated time post 50 mg/kg oral dosing or other dosing as indicated.

[3] = tested on: Ca^+2 -calmodulin dependent myosin light chain phosphorylation; assay: inhibition of Ca^+2-calmodulin dependent myosin light chain phosphorylation (MLCP); assay type: biochemical
Protocol: as §1, §2

| Structure (SMILES) | systolic blood pressure (B.P.) reduction ([1]; 10 mg/kg, 4 hours) | inhibition of superprecipitation (Antag. of Actin-Myosin) ([2]; 25 μM) | inhibition of superprecipitation (Antag. of Actin-Myosin) ([2]; 50 μM) | inhibition of superprecipitation (Antag. of Actin-Myosin) ([2]; 100 μM) | inhibition of myosin light chain phosphorylation (Antag. of MLCP) ([3]; 25 μM) | inhibition of myosin light chain phosphorylation (Antag. of MLCP) ([3]; 50 μM) | inhibition of myosin light chain phosphorylation (Antag. of MLCP) ([3]; 100 μM) | systolic blood pressure (B.P.) reduction ([1]; 50 mg/kg oral, 1.5 hours) | systolic blood pressure (B.P.) reduction ([1]; 50 mg/kg oral, 4 hours) | systolic blood pressure (B.P.) reduction ([1]; 10 mg/kg, 1.5 hours) | systolic blood pressure (B.P.) reduction ([1]; 25 mg/kg, 1.5 hours) | systolic blood pressure (B.P.) reduction ([1]; 25 mg/kg, 4 hours) |
| --- | --- | --- | --- | --- | --- | --- | --- | --- | --- | --- | --- | --- |
| CC1=C(C(=O)OCCOc2ccccc2)C(c2c(F)c(F)c(F)c(F)c2F)C2=C(CNCC2=O)N1 (racemic) [Example 2, 1,4,5,6,7,8-Hexahydro-2-methyl-5-oxo-4-(pentafluorophenyl)-1,7-naphthyridine-3-carboxylic acid 2-phenoxyethyl ester] | -51 mmHg | 28±2% | 58±4% | 72±2% | 24±3% | 54±4% | 69±3% | – | – | – | – | – |
| CO[C@H](COC(=O)C1=C(C)NC2=C(C(=O)CNC2)C1c1c(F)c(F)c(F)c(F)c1F)c1ccccc1 (single isomer, unassigned) [Example 8 Diastereomer A, 1,4,5,6,7,8-Hexahydro-2-methyl-5-oxo-4(R or S-pentafluorophenyl)-1,7-naphthyridine-3-carboxylic acid (S)-2-methoxy-2-phenylethyl esters] | – | – | 28% | 69% | – | 28% | 63% | – | – | – | – | – |
| CO[C@H](COC(=O)C1=C(C)NC2=C(C(=O)CNC2)C1c1c(F)c(F)c(F)c(F)c1F)c1ccccc1 (single isomer, unassigned) [Example 8 Diastereomer B, 1,4,5,6,7,8-Hexahydro-2-methyl-5-oxo-4(R or S-pentafluorophenyl)-1,7-naphthyridine-3-carboxylic acid (S)-2-methoxy-2-phenylethyl esters] | – | – | 30% | 64% | – | 34% | 62% | – | – | – | – | – |
| CC1=C(C(=O)OCCOc2ccccc2)C(c2c(F)c(F)c(F)c(F)c2F)C2=C(CNCC2=O)N1 (single isomer, unassigned; (-)) [Example 3, (-)-1,4,5,6,7,8-Hexahydro-2-methyl-5-oxo-4-(pentafluorophenyl)-1,7-naphthyridine-3-carboxylic acid 2-phenoxyethyl ester] | – | – | 65% | 76% | – | 57% | 70% | – | – | – | – | – |
| COC(COC(=O)C1=C(C)NC2=C(C(=O)CNC2)C1c1cccc(Cl)c1Cl)c1ccccc1 (centres unmarked) [Example 1, 4-(2,3-Dichlorophenyl)-1,4,5,6,7,8-hexahydro-2-methyl-5-oxo-1,7-naphthyridine-3-carboxylic acid 2-methoxy-2-phenylethyl ester] | – | 43±2% | 75±3% | 83±3% | 38±3% | 66% | 76±2% | -53 mmHg | -30 mmHg | – | – | – |
| CO[C@@H](COC(=O)C1=C(C)NC2=C(C(=O)CNC2)C1c1c(F)c(F)c(F)c(F)c1F)c1ccccc1 (stereo partly drawn) [Example 6, 1,4,5,6,7,8-Hexahydro-2-methyl-5-oxo-4-(pentafluorophenyl)-1,7-naphthyridine-3-carboxylic acid (R)-2-methoxy-2-phenylethyl ester] | -49 mmHg | – | 64% | 74% | – | 56% | 70% | – | – | -56 mmHg | – | – |
| COC(COC(=O)C1=C(C)NC2=C(C(=O)CNC2)C1c1c(F)cccc1Cl)c1ccccc1 (centres unmarked) [Example 9, 4-(2-Chloro-6-fluorophenyl)-1,4,5,6,7,8-hexahydro-2-methyl-5-oxo-1,7-naphthyridine-3-carboxylic acid 2-methoxy-2-phenylethyl ester] | – | – | – | 40% | – | – | 44% | -37 mmHg | -14 mmHg | – | – | – |
| COC(COC(=O)C1=C(C)NC2=C(C(=O)CNC2)C1c1cccc(Cl)c1)c1ccccc1 (centres unmarked) [Example 11, 4-(3-Chlorophenyl)-1,4,5,6,7,8-hexahydro-2-methyl-5-oxo-1,7 naphthyridine-3-carboxylic acid 2-methoxy-2-phenylethyl ester] | – | – | – | 53% | – | – | 48% | -29 mmHg | -38 mmHg | – | – | – |
| COC(COC(=O)C1=C(C)NC2=C(C(=O)CNC2)C1c1ccccc1C(F)(F)F)c1ccccc1 (centres unmarked) [Example 12, 1,4,5,6,7,8-Hexahydro-2-methyl-5-oxo-4-[2-(trifluoromethyl)phenyl]-1,7-naphthyridine-3-carboxylic acid 2-methoxy-2-phenylethyl ester] | – | – | – | 30% | – | – | 24% | – | – | – | -56 mmHg | -56 mmHg |
| CC1=C(C(=O)OC(C)COc2ccccc2)C(c2c(F)c(F)c(F)c(F)c2F)C2=C(CNCC2=O)N1 (centres unmarked) [Example 13, 1,4,5,6,7,8-Hexahydro-2-methyl-5-oxo-4-(pentafluorophenyl)-1,7-naphthyridine-3-carboxylic acid 1-methyl-2-phenoxyethyl ester] | – | 61% | – | 78% | 58% | – | 70% | -35 mmHg | -60 mmHg | – | – | – |
| CC1=C(C(=O)OCC2COc3ccccc3O2)C(c2c(F)c(F)c(F)c(F)c2F)C2=C(CNCC2=O)N1 (centres unmarked) [Example 14, 1,4,5,6,7,8-Hexahydro-2-methyl-5-oxo-4-(pentafluorophenyl)-1,7-naphthyridine-3-carboxylic acid 2,3-dihydro-1,4-benzodioxin-2-ylmethyl ester] | – | 65% | – | 80% | 59% | – | 76% | -46 mmHg | -42 mmHg | – | – | – |
| CC1=C(C(=O)OCCOc2ccccc2)C(c2ccccc2C)C2=C(CNCC2=O)N1 (centres unmarked) [Example 15, 1,4,5,6,7,8-Hexahydro-2-methyl-4-(2-methylphenyl)-5-oxo-1,7-naphthyridine-3-carboxylic acid 2-phenoxyethyl ester] | – | – | – | 66±5% | – | – | 61±5% | – | – | – | -29 mmHg | -39 mmHg |
| CC1=C(C(=O)OCCOc2ccccc2)C(c2c(F)ccc(F)c2F)C2=C(CNCC2=O)N1 (centres unmarked) [Example 16, 1,4,5,6,7,8-Hexahydro-2-methyl-5-oxo-4-(2,3,6-trifluorophenyl)-1,7-naphthyrdine-3-carboxylic acid 2-phenoxyethyl ester] | – | – | – | 34% | – | – | 28% | – | – | – | – | -18 mmHg |
| CC1=C(C(=O)OCCc2ccccc2)C(c2c(F)c(F)c(F)c(F)c2F)C2=C(CNCC2=O)N1 (centres unmarked) [Example 18, 1,4,5,6,7,8-Hexahydro-2-methyl-5-oxo-4-(pentafluorophenyl)-1,7-naphthyridine-3-carboxylic acid 2-phenylethyl ester] | -24 mmHg | 42% | 65% | 78±2% | 35% | 64% | 77±3% | – | – | -27 mmHg | – | – |
| CC1=C(C(=O)OCCOc2ccccc2)C(c2cccc(Cl)c2Cl)C2=C(CNCC2=O)N1.Cl (centres unmarked) [Example 19, 4-(2,3-Dichlorophenyl)-1,4,5,6,7,8-hexahydro-2-methyl-5-oxo-1,7-naphthyridine-3-carboxylic acid 2-phenoxyethyl ester, hydrochloride] | – | – | – | 71% | – | – | 69% | -50 mmHg | -73 mmHg | – | – | – |
| CC1=C(C(=O)OCC(C)(C)Oc2ccccc2)C(c2c(F)c(F)c(F)c(F)c2F)C2=C(CNCC2=O)N1.Cl (centres unmarked) [Example 20, 1,4,5,6,7,8-Hexahydro-2-methyl-5-oxo-4-(pentafluorophenyl)-1,7-naphthyridine-3-carboxylic acid 2-methyl-2-phenoxypropyl ester, hydrochloride] | – | – | – | 67% | – | – | 62% | – | – | – | -64 mmHg | -41 mmHg |
